Results reported in patent US20260191817A1, “FIBROBLAST MODULATORS IN STROMA-RICH TUMORS” (UNIVERSITEIT GENT, priority 2022, published 2026).

Experiments:
[1] = system: human invasive MCF-7/6 mammary carcinoma cells; test: Chick heart invasion (CHI) assay with MCF-7/6 aggregates; assay type: cell-based; conditions: MCF7/6, 192 h, lowest concentration at which an anti-invasive effect (histological grade I or II) was observed, 8 days, read-out: Lowest active concentration
Experimental: Chick heart invasion assays were performed as described earlier (Bracke et al. 2014). Precultured heart fragments of 9-day-old chicken embryos were confronted with MCF-7/6 aggregates on top of a semi-solid agar at 37° C. overnight, after which the confronting pairs were cultured in suspension for 8 days at 37° C., 10% CO2 in presence or absence of a test compound (in duplo). This procedure can also be performed with aggregates of 4T1-Luc cells, for which the suspension culture of the confronting pairs is performed for 3.5 days. All compounds were evaluated at 1 μM and 100 nM; depending on the outcome higher or lower concentrations were subsequently evaluated. Upon fixation in Bouin-Hollande, the cultures were dehydrated and embedded in paraffin. Sections of the confrontation cultures were stained with hematoxylin-eosin are blinded and scored by a trained person (Bracke et al., 2014).
In the chick heart invasion assay cancer cells are confronted with a fragment of normal tissue, so as not to neglect the contribution of the host tissue in the micro-ecosystem that governs tumor behavior. As such, precultured heart tissue fragments (PHFs), dissected from 9-day-old chicken embryos, may be confronted with aggregates of human invasive MCF-7/6 mammary carcinoma cells or other cells in the presence of a certain concentration of a test compound. After eight days for MCF-7/6, or another period depending on the cell type, the interaction between the cancer cells and the PHF is evaluated histologically and classified along a 5-grades subjective scale (Bracke et al. 2014). Grades III and IV are typical for invasion, while grades 0, I and II correspond to absence of invasion. Compounds that inhibit invasion of confronting cancer cells i.e. from III/IV to 0/I/II, are determined as anti-invasive. Possible alternative assays generally known in the art are the type I collagen invasion assay, wound healing assay and the matrigel invasion assay.
The chick heart invasion (CHI) assay is a phenotypic assay that confronts precultured heart tissue fragments (PHFs, ‘normal tissue’), obtained from 9-day-old chicken embryos, with aggregates of human invasive MCF-7/6 mammary carcinoma cells (Bracke et al. 2014). In the control situation, the MCF-7/6 cells encircle, invade and destroy the PHF over an 8-day period. Invasion in this assay is defined as the progressive occupation and destruction of the PHF by the MCF-7/6 cells. Three-dimensional reconstruction of this interaction is obtained by microscopic analysis of all consecutive histological sections of the culture. The read-out is an invasion score according to a 5-grades histological scale.
The CHI closely reproduces the temporal, spatial and histological invasion patterns in man. The co-culture set-up probes for effects on both tumor cells and host tissue, and thus interrogates potential pharmacological targets in either interaction partner. Its use of histological evaluation allows discerning anti-invasive action from cytotoxicity or other effects.
We have submitted flavones B1-B4, flavanones B5-B8 and the intermediate 2′-hydroxychalcones A9, All and A12 to the chick heart invasion assay using MCF-7/6 aggregates. All compounds were evaluated at 1 μM and 100 nM; depending on the outcome higher or lower concentrations were subsequently evaluated. […] This table also includes CHI data on chalcones A1, A2 and A5.

[2] = system: primary human atrial fibroblasts; test: AFM spheroid stiffness, primary human atrial fibroblasts; assay type: cell-based; conditions: 10 μM, 48 h
Experimental: (§1) Selectivity for CAFs with respect to normal fibroblasts and other cell types was assessed by performing an identical experiment with normal fibroblasts and other cell types, where compounds were considered selective for CAFs if they only modulate CAF stiffness.
(§2) U-shaped, 384-well ULA plates (cat. no. MS-9384UZ, S-bio) were seeded with a suspension of cell-specific culture media with cells. Cells were allowed to form spheroids for an appropriate time under treatment conditions before use in experiments. Cell culture dishes (cat. no. 734-2814, VWR) were filled with collagen gel and placed at 37° C. for an appropriate time to allow solidification. For each condition, spheroids were pooled in one cell culture dish. The medium was removed (stored at 37° C.) to promote attachment of the bottom of each spheroid to the collagen gel. The cell culture dishes were incubated at 37° C. After the incubation period, the stored medium was carefully (prevent detachment of spheroids) added to the dishes.
(§3) Mechanical measurements were performed using an atomic force microscope. To indent the spheroids an in-house made colloidal probe was used. Force curves were collected using an appropriate setpoint and probe speed (depending on the stiffness of the spheroids). On each spheroid multiple force curves were collected. Collected curves were then processed using the JPK DP software. Young's modulus was extracted from the force curves. All experiments were performed in biological triplicate.
(§4) To generate 3D cultures mimicking the complexity and pathophysiology of in vivo tumors, spheroids were used (cfr. point 4). Spheroids are considered to better simulate cellular heterogeneity, nutrient and oxygen gradients, cell-cell interactions, cell-matrix interactions, gene expression profiles, stromal interactions, therapeutic responses, multicellular resistance, drug penetration and anti-apoptotic signaling.

[3] = system: MCF-7/6 breast cancer cells; test: AFM spheroid stiffness, MCF-7/6 breast cancer cells; assay type: cell-based, human; conditions: 10 μM, 48 h
Experimental: as §1, §2, §3, §4

[4] = system: primary glioblastoma (GBM) cells; test: AFM spheroid stiffness, primary glioblastoma cells; assay type: cell-based, human; conditions: 10 μM, 48 h
Experimental: as §1, §2, §3, §4

[5] = system: HCA2 hTERT dermal fibroblasts; test: AFM spheroid stiffness, HCA2 hTERT dermal fibroblasts; assay type: cell-based; conditions: HCA2 hTERT normal dermal fibroblasts; 10 μM, 48 h
Experimental: as §1, §2, §3, §4

13B2 hTERT breast CAFs = test: AFM spheroid stiffness, 13B2 hTERT breast CAFs; assay type: cell-based, human; conditions: 48 h during spheroid formation; for spheroid stiffness: 10 μM; for Young's modulus / spheroid stiffness: 1 μM
Source text: (§5) It is well established that an increased tumor and ECM stiffness is associated with a negative prognosis as it promotes tumor growth, progression, therapy resistance, immunosuppression and metastasis. Stiffness is chiefly regulated by the action of the CAFs in the TME. Stiffness modulation is, therefore, a fitting read-out of activity in a screen for CAF modulators. To assess stiffness modulation, the stiffness of spheroids of CAF cells treated with test compounds was interrogated using atomic force microscopy (AFM) indentation and compared with untreated cells. AFM measurement of the stiffness (elasticity) of cells and spheroids is a technique well-known to those skilled in the art. AFM measures the force required to create a given deflection, this read-out is also known as the Young's modulus. AFM is widely used in biology and cancer research: altered physicochemical properties of live cells serve as a read-out of altered complex physiological processes.
as §2, §3, §4

CAF03 glioblastoma CAFs = test: AFM spheroid stiffness, CAF03 glioblastoma CAFs; assay type: cell-based; conditions: 10 μM, 48 h
Source text: as §5, §2, §3, §4

With `COc1ccc2c(=O)cc(-c3ccc(F)cc3)oc2c1` [Compound B3, 2-(4-Fluorophenyl)-7-methoxy-4H-chromen-4-one] the minimal effective concentration [1] was 0.01 µM.
`COc1ccc2c(=O)cc(-c3ccc(Cl)cc3)oc2c1` [Compound B4, 2-(4-Chlorophenyl)-7-methoxy-4H-chromen-4-one] was tested, and the minimal effective concentration [1] was 0.01 µM.
In the case of `COc1ccc(C(=O)/C=C/c2ccc(F)cc2)c(O)c1` [Compound A12, 3-(4-fluorophenyl)-1-(2-hydroxy-4-methoxyphenyl)prop-2-en-1-one], the minimal effective concentration [1] is reported as 1 µM.
With `Cc1ccc2c(c1)C(=O)C1(O)CCN(c3ccccc3)C1=N2` (centres unmarked) [blebbistatin, reference compound] the spheroid stiffness [2] was “reduced the stiffness”, the spheroid stiffness [3] was “reduced the stiffness” and the spheroid stiffness [4] was “reduced the stiffness”. For the same molecule, the spheroid stiffness [5] was “reduced the stiffness”, the spheroid stiffness (13B2 hTERT breast CAFs) was “active” and the spheroid stiffness (CAF03 glioblastoma CAFs) was “active”.
For `COc1ccc(C(=O)/C=C/c2ccc(F)cc2)cc1C(F)(F)F` [Compound A14, 3-(4-Fluorophenyl)-1-(4-methoxy-3-(trifluoromethyl)phenyl)prop-2-en-1-one], the “Young's modulus / spheroid stiffness” value (13B2 hTERT breast CAFs) was “decreased”.
`COc1cc2c(=O)cc(-c3ccc(F)cc3)oc2c(OC)c1OC` [Compound B2, 2-(4-Fluorophenyl)-6,7,8-trimethoxy-4H-chromen-4-one] was tested, and the minimal effective concentration [1] was 10 µM.
With `C=C1[C@@H](C)[C@H]2[C@H](Cc3ccccc3)NC(=O)[C@]23[C@H](OC(C)=O)/C=C/[C@@](C)(O)C(=O)[C@@H](C)C/C=C/[C@H]3[C@@H]1O` [cytochalasin D, reference compound] the spheroid stiffness [2] was “reduced the stiffness”, the spheroid stiffness [3] was “reduced the stiffness” and the spheroid stiffness [4] was “reduced the stiffness”. For the same molecule, the spheroid stiffness [5] was “reduced the stiffness”, the spheroid stiffness (13B2 hTERT breast CAFs) was “active” and the spheroid stiffness (CAF03 glioblastoma CAFs) was “active”.
Work on `COc1ccc(C(=O)/C=C/c2ccc(Cl)cc2)c(O)c1` [Compound A13, 3-(4-chlorophenyl)-1-(2-hydroxy-4-methoxyphenyl)prop-2-en-1-one] yielded a minimal effective concentration [1] of 0.1 µM.
For `COc1ccc2c(c1)OC(c1ccc(F)cc1)CC2=O` (centres unmarked) [Compound B7, 2-(4-Fluorophenvl)-7-methoxvchroman-4-one], the minimal effective concentration [1] was 10 µM.
In the case of `COc1cc2c(c(OC)c1OC)C(=O)CC(c1ccc(F)cc1)O2` (centres unmarked) [Compound B5, 2-(4-Fluorophenyl)-5,6,7-dimethoxychroman-4-one], the minimal effective concentration [1] is reported as 0.1 µM.
In the case of `COc1cc2c(c(OC)c1OC)OC(c1ccc(F)cc1)CC2=O` (centres unmarked) [Compound B6, 2-(4-Fluorophenyl)-6,7,8-dimethoxychroman-4-one], the minimal effective concentration [1] is reported as 100 µM.
Molecule `COc1ccc2c(c1)OC(c1ccc(Cl)cc1)CC2=O` (centres unmarked) [Compound B8, 2-(4-Chlorophenyl)-7-methoxvchroman-4-one] has a minimal effective concentration [1] of 0.1 µM.
In the case of `COc1ccc(C(=O)/C=C/c2ccc(F)cc2)cc1` [Compound A5, 3-(4-Fluorophenyl)-1-(4-methoxyphenyl)prop2-en-1-one], the minimal effective concentration [1] is reported as 1 µM.
`COc1cc(O)c(C(=O)/C=C/c2ccc(F)cc2)c(OC)c1OC` [Compound A10, 3-(4-Fluorophenyl)-1-(6-hydroxy-2,3,4-trimethoxyphenyl)prop-2-en-1-one] showed a minimal effective concentration [1] of 0.01 µM.
For `O=C(/C=C/c1ccccc1)c1ccccc1` [Compound A8, 1,3-Diphenvlprop2-en-1-one], the “Young's modulus / spheroid stiffness” value (13B2 hTERT breast CAFs) was “did not have an effect”.
With `C[C@@H](N)[C@H]1CC[C@H](C(=O)Nc2ccncc2)CC1` [Compound Y-27632, Y-27632, reference compound] the spheroid stiffness [2] was “reduced the stiffness”, the spheroid stiffness [3] was “reduced the stiffness” and the spheroid stiffness [4] was “reduced the stiffness”. The spheroid stiffness [5] was “reduced the stiffness”, the spheroid stiffness (13B2 hTERT breast CAFs) was “active” and the spheroid stiffness (CAF03 glioblastoma CAFs) was “active”.
In the case of `COc1ccc(C(=O)/C=C/c2ccc(Cl)cc2)cc1` [Compound A2, 3-(4-Chlorophenyl)-1-(4-methoxyphenyl)prop2-en-1-one], the minimal effective concentration [1] is reported as 0.01 µM.
